{"source": "patent US20060069132A1", "about": "“Azolecarboxamide herbicides” (priority 2004, published 2006)", "key": {"common ragweed": {"test_system": "common ragweed", "assay": "Test C pre-/postemergence herbicide test", "format": "in vivo, Ambrosia elatior", "details": "Ambrosia artemisiifolia, pre-emergence, read-out: Plant response rating, Ragweed", "outline": "(§1)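 Seeds were planted and sprayed preemergence with test chemicals in a non-phytotoxic solvent mixture containing surfactant; postemergence treatments went onto plants 2 to 18 cm tall (1- to 4-leaf stage). After 12 to 14 days in a greenhouse, injury was rated visually against untreated controls on a 0–100 scale.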"}, "[1]": {"test_system": "smallflower umbrella sedge", "assay": "Test C flooded paddy test", "format": "in vivo, Cyperus difformis", "details": "Cyperus difformis"}, "kochia": {"test_system": "kochia", "assay": "Test C pre-/postemergence herbicide test", "format": "in vivo, Kochia scoparia", "details": "Bassia scoparia, pre-emergence, read-out: Plant response rating, Kochia", "outline": "as §1"}, "soybean": {"test_system": "soybean", "assay": "Test C pre-/postemergence herbicide test", "format": "in vivo, Glycine max", "details": "Glycine max, pre-emergence, read-out: Plant response rating, Soybean", "outline": "as §1"}, "corn": {"test_system": "corn", "assay": "Test C pre-/postemergence herbicide test", "format": "in vivo, Zea mays", "details": "Zea mays, pre-emergence, 312 h", "outline": "as §1"}, "velvetleaf": {"test_system": "velvetleaf", "assay": "Test A pre-/postemergence herbicide test", "format": "in vivo, Abutilon theophrasti", "details": "Abutilon theophrasti, 240 h; for pest or weed control at 500 g/ha: 500 g ai/ha; for pest or weed control at 2000 g/ha: 2000 g ai/ha", "outline": "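Seeds sown in sandy loam received a preemergence directed soil spray of compound in non-phytotoxic solvent with surfactant; postemergence plants (2–10 cm, one- to two-leaf stage) were sprayed to runoff at the same time. After ~10 days in greenhouse, injury was rated visually versus untreated controls (0 = no effect, 100 = complete control).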"}, "Surinam grass": {"test_system": "Surinam grass", "assay": "Test C pre-/postemergence herbicide test", "format": "in vivo, Urochloa decumbens", "details": "Urochloa decumbens, pre-emergence, 312 h, read-out: Plant response rating, Surinam Grass", "outline": "as §1"}, "barnyardgrass": {"test_system": "barnyardgrass", "assay": "Test C flooded paddy test", "format": "in vivo, Echinochloa crus-galli", "details": "Echinochloa crus-galli", "outline": "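Postemergence sprays applied to plants 2 to 18 cm tall (1- to 4-leaf stage); paddy species grown to 2-leaf stage under flooding. After 12 to 14 days in greenhouse, visual rating versus untreated controls on 0–100 scale (0 no effect, 100 complete control).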"}, "morningglory": {"test_system": "morningglory", "assay": "Test C pre-/postemergence herbicide test", "format": "in vivo, Ipomoea coccinea", "details": "Ipomoea, pre-emergence, read-out: Plant response rating, Morningglory", "outline": "as §1"}, "giant foxtail": {"test_system": "giant foxtail", "assay": "Test C pre-/postemergence herbicide test", "format": "in vivo, Setaria faberi", "details": "Setaria faberi, pre-emergence, 312 h, read-out: Plant response rating, Foxtail, Giant", "outline": "as §1"}, "rice": {"test_system": "rice", "assay": "Test C flooded paddy test", "format": "in vivo, Oryza sativa", "details": "Oryza sativa", "outline": "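Injury scored visually against controls on a 0 (no effect) to 100 (complete control) scale, 12 to 14 days after treatment in greenhouse. Flooded paddy plants treated at 2-leaf stage; postemergence plants at 1- to 4-leaf stage, 2 to 18 cm tall.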"}, "[2]": {"details": "62 g ai/ha, preemergence, scale 0 to 100"}, "[3]": {"details": "500 g ai/ha, scale 0 to 100 (0 no effect, 100 complete control), visual, 12 to 14 days"}, "[4]": {"details": "125 g ai/ha, scale 0 (no effect) to 100 (complete control), visual, 12 to 14 days"}}, "note": "Where two headings read alike, the source gives them in different places."}
{"smiles": "CCN1N=C(C(C)(C)C)CC1C(=O)Nc1cc(C(=O)N(C)C)ccc1F", "note": "(centres unmarked) [Compound 268, N-[5-[(dimethylamino)carbonyl]-2-fluorophenyl]-3-(1,1-dimethylethyl)-1-ethyl-4,5-dihydro-1H-pyrazole-5-carboxamide]", "values": [{"measurement": "pest or weed control at 62 g/ha", "setting": "common ragweed; [2]", "value": 70, "unit": "%"}, {"measurement": "pest or weed control at 250 g/ha", "setting": "common ragweed; 250 g ai/ha, scale 0-100", "value": 100, "unit": "%"}, {"measurement": "pest or weed control at 500 g/ha", "setting": "common ragweed; [3]", "value": 100, "unit": "%"}, {"measurement": "pest or weed control at 62 g/ha", "setting": "[1]; 62 g ai/ha, scale 0 to 100, read-out: Sedge, Umbrella plant response rating", "value": 55, "unit": "%"}, {"measurement": "pest or weed control at 125 g/ha", "setting": "[1]; 125 g ai/ha, scale 0 to 100 (0 no effect, 100 complete control), read-out: Sedge, Umbrella plant response rating", "value": 70, "unit": "%"}, {"measurement": "pest or weed control at 250 g/ha", "setting": "[1]; 250 g ai/ha, scale of 0 to 100, 0 is no effect, 100 is complete control, read-out: Sedge, Umbrella plant response rating", "value": 80, "unit": "%"}, {"measurement": "pest or weed control at 500 g/ha", "setting": "[1]; 500 g ai/ha, visual rating after 12 to 14 days, scale 0 to 100 (0 no effect, 100 complete control), read-out: Plant response rating, Sedge, Umbrella", "value": 95, "unit": "%"}, {"measurement": "pest or weed control at 62 g/ha", "setting": "kochia; [2]", "value": 100, "unit": "%"}, {"measurement": "pest or weed control at 125 g/ha", "setting": "kochia; [4]", "value": 100, "unit": "%"}, {"measurement": "pest or weed control at 250 g/ha", "setting": "kochia; 250 g ai/ha, scale 0-100", "value": 100, "unit": "%"}, {"measurement": "pest or weed control at 500 g/ha", "setting": "kochia; [3]", "value": 100, "unit": "%"}, {"measurement": "plant injury at 62 g/ha", "setting": "soybean; [2]", "value": 60, "unit": "%"}, {"measurement": "plant injury at 250 g/ha", "setting": "soybean; 250 g ai/ha, scale 0-100", "value": 90, "unit": "%"}, {"measurement": "plant injury at 500 g/ha", "setting": "soybean; [3]", "value": 95, "unit": "%"}, {"measurement": "Corn plant response rating (crop injury, 0 = no effect, 100 = complete kill) at 62 g/ha", "setting": "corn; [2]", "value": 10, "unit": "%"}, {"measurement": "Corn plant response rating (crop injury, 0 = no effect, 100 = complete kill) at 125 g/ha", "setting": "corn; [4]", "value": 45, "unit": "%"}, {"measurement": "Corn plant response rating (crop injury, 0 = no effect, 100 = complete kill) at 250 g/ha", "setting": "corn; 250 g ai/ha, scale 0-100", "value": 60, "unit": "%"}, {"measurement": "Corn plant response rating (crop injury, 0 = no effect, 100 = complete kill) at 500 g/ha", "setting": "corn; [3]", "value": 70, "unit": "%"}, {"measurement": "pest or weed control at 500 g/ha", "setting": "velvetleaf; post-emergence, Postemergence, 0 to 100 scale, 0 no effect, 100 complete control, read-out: Velvetleaf plant response rating", "value": 45, "unit": "%"}, {"measurement": "pest or weed control at 2000 g/ha", "setting": "velvetleaf; post-emergence, Postemergence, 0 to 100 scale, 0 no effect, 100 complete control, read-out: Plant response rating, Velvetleaf", "value": 45, "unit": "%"}, {"measurement": "pest or weed control at 2000 g/ha", "setting": "velvetleaf; pre-emergence, Preemergence, visual rating, 0 to 100 scale (0 no effect, 100 complete control), read-out: Velvetleaf plant response rating", "value": 100, "unit": "%"}, {"measurement": "pest or weed control at 500 g/ha", "setting": "velvetleaf; pre-emergence, preemergence, visual injury, 0 to 100 scale (0 no effect, 100 complete control), read-out: Velvetleaf plant response rating", "value": 95, "unit": "%"}, {"measurement": "pest or weed control at 62 g/ha", "setting": "Surinam grass; [2]", "value": 70, "unit": "%"}, {"measurement": "pest or weed control at 250 g/ha", "setting": "Surinam grass; 250 g ai/ha, scale 0-100", "value": 95, "unit": "%"}, {"measurement": "pest or weed control at 500 g/ha", "setting": "Surinam grass; [3]", "value": 100, "unit": "%"}, {"measurement": "pest or weed control at 62 g/ha", "setting": "barnyardgrass; 62 g ai/ha, scale 0 to 100 (0 no effect, 100 complete control), read-out: Barnyardgrass plant response rating", "value": 65, "unit": "%"}, {"measurement": "pest or weed control at 125 g/ha", "setting": "barnyardgrass; 125 g ai/ha, scale 0 to 100 (0 no effect, 100 complete control), read-out: Barnyardgrass plant response rating", "value": 90, "unit": "%"}, {"measurement": "pest or weed control at 250 g/ha", "setting": "barnyardgrass; 250 g ai/ha, scale of 0 to 100, 0 is no effect, 100 is complete control, read-out: Barnyardgrass plant response rating", "value": 95, "unit": "%"}, {"measurement": "pest or weed control at 500 g/ha", "setting": "barnyardgrass; 500 g ai/ha, visual rating after 12 to 14 days, scale 0 to 100 (0 no effect, 100 complete control), read-out: Plant response rating, Barnyardgrass", "value": 95, "unit": "%"}, {"measurement": "pest or weed control at 62 g/ha", "setting": "morningglory; [2]", "value": 0, "unit": "%"}, {"measurement": "pest or weed control at 125 g/ha", "setting": "morningglory; [4]", "value": 0, "unit": "%"}, {"measurement": "pest or weed control at 250 g/ha", "setting": "morningglory; 250 g ai/ha, scale 0-100", "value": 5, "unit": "%"}, {"measurement": "pest or weed control at 500 g/ha", "setting": "morningglory; [3]", "value": 5, "unit": "%"}, {"measurement": "pest or weed control at 62 g/ha", "setting": "giant foxtail; [2]", "value": 80, "unit": "%"}, {"measurement": "pest or weed control at 125 g/ha", "setting": "giant foxtail; [4]", "value": 95, "unit": "%"}, {"measurement": "pest or weed control at 250 g/ha", "setting": "giant foxtail; 250 g ai/ha, scale 0-100", "value": 95, "unit": "%"}, {"measurement": "pest or weed control at 500 g/ha", "setting": "giant foxtail; [3]", "value": 100, "unit": "%"}, {"measurement": "plant injury at 62 g/ha", "setting": "rice; 62 g ai/ha, scale 0 to 100, read-out: Rice plant response rating", "value": 75, "unit": "%"}, {"measurement": "plant injury at 125 g/ha", "setting": "rice; 125 g ai/ha, scale 0 to 100 (0 no effect, 100 complete control), read-out: Rice plant response rating", "value": 85, "unit": "%"}, {"measurement": "plant injury at 250 g/ha", "setting": "rice; 250 g ai/ha, scale of 0 to 100, 0 is no effect, 100 is complete control, read-out: Rice plant response rating", "value": 90, "unit": "%"}, {"measurement": "plant injury at 500 g/ha", "setting": "rice; 500 g ai/ha, visual rating after 12 to 14 days, scale 0 to 100 (0 no effect, 100 complete control), read-out: Plant response rating, Rice", "value": 90, "unit": "%"}]}
